Structures are written as SMILES. Several values for one entry are separate records, joined by “and”; a condition that tells them apart may be missing. Equal values may be shown once.

Experiment [1] can be described thus: Effective concentration in human ATP binding cassette transporter A1 (ABCA1) transcriptional activation assay.
The species entered for experiment [2] is Homo sapiens.
Description: Relative efficacy in human ATP binding cassette transporter A1 (ABCA1) transcriptional activation assay compared to GW-3965
In experiment [3] the target is T1, Oxysterols receptor LXR-beta (Homo sapiens, UniProt P55055).
T1 sequence (P55055 whole entry): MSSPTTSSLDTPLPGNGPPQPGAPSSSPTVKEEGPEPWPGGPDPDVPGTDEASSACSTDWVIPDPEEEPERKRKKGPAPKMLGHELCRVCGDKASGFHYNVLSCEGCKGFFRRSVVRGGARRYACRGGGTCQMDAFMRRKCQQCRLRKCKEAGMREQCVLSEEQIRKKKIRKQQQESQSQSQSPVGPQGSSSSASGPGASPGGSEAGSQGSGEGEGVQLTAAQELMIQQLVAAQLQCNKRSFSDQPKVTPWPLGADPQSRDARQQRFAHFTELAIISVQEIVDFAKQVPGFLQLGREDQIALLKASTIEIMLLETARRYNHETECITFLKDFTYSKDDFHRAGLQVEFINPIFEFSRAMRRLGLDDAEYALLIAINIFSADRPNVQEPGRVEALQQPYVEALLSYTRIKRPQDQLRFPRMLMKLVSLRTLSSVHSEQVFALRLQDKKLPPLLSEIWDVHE
The experiment is described as follows: Effective concentration for Steroid receptor coactivator-1 (SRC1) recruitment to human LXRbeta (Liver X receptor).

The target in experiment [4] is Glycogen synthase kinase-3 beta (Homo sapiens, UniProt P49841). Description: Inhibition of human GSK3-beta.
Experiment [5] deals with T2, Oxysterols receptor LXR-alpha (Homo sapiens, UniProt Q13133).
T2 sequence (Q13133 whole entry): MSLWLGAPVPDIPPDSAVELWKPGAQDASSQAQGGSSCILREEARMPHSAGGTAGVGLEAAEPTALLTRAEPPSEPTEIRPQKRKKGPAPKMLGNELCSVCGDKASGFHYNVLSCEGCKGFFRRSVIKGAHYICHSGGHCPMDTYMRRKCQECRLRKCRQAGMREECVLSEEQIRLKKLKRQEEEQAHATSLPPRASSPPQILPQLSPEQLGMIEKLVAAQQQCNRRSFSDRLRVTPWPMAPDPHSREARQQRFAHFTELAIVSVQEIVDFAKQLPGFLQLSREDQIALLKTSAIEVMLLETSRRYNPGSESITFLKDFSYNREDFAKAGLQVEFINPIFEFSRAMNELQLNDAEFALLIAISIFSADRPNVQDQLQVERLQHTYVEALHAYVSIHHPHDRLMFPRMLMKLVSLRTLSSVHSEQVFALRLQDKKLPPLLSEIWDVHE
The experiment is described as follows: Effective concentration for Steroid receptor coactivator-1 (SRC1) recruitment to human LXRalpha (Liver X receptor).

Experiment [6] addresses T3, Oxysterols receptor LXR-alpha (Homo sapiens) (UniProt Q13133).
T3 sequence (whole entry): T2 sequence (Q13133 whole entry)
Description: Relative efficacy for Steroid receptor coactivator-1 (SRC1) recruitment to human LXRalpha compared to GW-3965

Experiment [7] concerns the target T4, Oxysterols receptor LXR-beta (Homo sapiens) (UniProt P55055).
T4 sequence (whole entry): T1 sequence (P55055 whole entry)
Description: Relative efficacy in Steroid receptor coactivator-1 (SRC1) recruitment to human LXRbeta compared to GW-3965.

Sequence of Glycogen synthase kinase-3 beta (P49841 whole entry): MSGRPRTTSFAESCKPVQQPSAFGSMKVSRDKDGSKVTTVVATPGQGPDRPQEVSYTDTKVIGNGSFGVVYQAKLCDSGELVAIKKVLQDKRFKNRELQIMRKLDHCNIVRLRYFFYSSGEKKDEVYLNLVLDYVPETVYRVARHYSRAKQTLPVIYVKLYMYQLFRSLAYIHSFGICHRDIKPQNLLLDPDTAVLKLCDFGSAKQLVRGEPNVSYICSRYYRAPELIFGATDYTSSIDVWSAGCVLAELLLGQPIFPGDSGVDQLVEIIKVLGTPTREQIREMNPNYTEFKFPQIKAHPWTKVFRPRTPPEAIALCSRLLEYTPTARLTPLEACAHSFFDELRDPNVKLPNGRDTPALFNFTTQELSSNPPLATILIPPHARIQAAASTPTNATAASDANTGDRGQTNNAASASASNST

For `CCN1C(=O)C(Nc2ccc(OC)cc2)=C(c2ccccc2)C1=O`, the EC50 in experiment [1] came to 10200 nM; in experiment [3], 200 nM; in experiment [5], 300 nM. The RE in experiment [2] was 0.4; in experiment [6], 1.1 and 0.9. The compound also yielded a half-maximal inhibitory concentration (IC50) in experiment [4] above 5000 nM.
Compound `O=S(=O)(c1ccccc1)N(CC(F)(F)F)c1ccc(C(O)(C(F)(F)F)C(F)(F)F)cc1` [T091317] yielded an EC50 in experiment [1] of 70 nM. Also, the RE in experiment [2] is 1; in experiment [6] it was 1.1 and 0.8.
For `O=C1C(Nc2ccc(Cl)cc2)=C(c2ccccc2)C(=O)N1Cc1ccccc1`, the EC50 in experiment [1] stood at 1420 nM; in experiment [3], 110 nM; in experiment [5] it was 130 nM. Moreover, the RE in experiment [2] is 0.4; in experiment [6], 0.3 and 0.4. Also, the 50% inhibitory concentration (IC50) in experiment [4] is above 5000 nM.
For `COc1ccc(NC2=C(c3ccccc3)C(=O)N(C)C2=O)cc1`, the half-maximal effective concentration (EC50) amounted to 840 nM in experiment [1], 300 nM in experiment [3] and 575 nM in experiment [5]. Besides, the RE in experiment [2] was 1.4; in experiment [6] it was 0.9. The IC50 in experiment [4] is above 2000 nM.
Take `COc1ccc(NC2=C(c3ccccc3)C(=O)N(Cc3ccccc3)C2=O)cc1`: the half-maximal effective concentration (EC50) in experiment [1] is 80 nM; in experiment [3] it was 40 nM; in experiment [5], 50 nM. The RE in experiment [2] and in experiment [6] was 0.9 throughout. Further, the IC50 in experiment [4] was above 5000 nM.
Turning to `O=C1C(Nc2ccccc2)=C(c2ccccc2)C(=O)N1Cc1ccccc1`, the 50% effective concentration (EC50) in experiment [1] is 1320 nM; in experiment [3] it was 70 nM; in experiment [5] it was 100 nM. Further, the RE in experiment [2] is 0.6; in experiment [6] it was 0.3 and 0.5. Further, in experiment [4], the IC50 was above 5000 nM.
Regarding `CCN1C(=O)C(Nc2ccc(Cl)cc2)=C(c2ccccc2)C1=O`, the EC50 in experiment [1] came to 4550 nM; in experiment [3], 575 nM; in experiment [5] it was 725 nM. Moreover, the RE in experiment [2] is 0.4; in experiment [6] it was 0.5 and 0.6. Besides, in experiment [4], the IC50 is above 5000 nM.
In the case of `CN1C(=O)C(Nc2ccccc2)=C(c2ccccc2)C1=O`, the EC50 in experiment [1] amounted to 4650 nM; in experiment [3], 850 nM; in experiment [5], 1590 nM. Further, the RE in experiment [2] is 0.3; in experiment [6], 0.5 and 0.6. Also, in experiment [4], the IC50 is above 5000 nM.
Regarding `CCN1C(=O)C(Nc2ccccc2)=C(c2ccccc2)C1=O`, the EC50 in experiment [1] is 1790 nM; in experiment [3] it was 560 nM; in experiment [5] it was 890 nM. Moreover, the RE in experiment [2] was found to be 0.5; in experiment [6], 0.7. In experiment [4], this compound came in with an IC50 above 5000 nM.
Take `O=C(O)Cc1cccc(OCCCN(Cc2cccc(C(F)(F)F)c2Cl)CC(c2ccccc2)c2ccccc2)c1`: the values for the EC50 in experiment [1] and in experiment [5] were 170 nM and 80 nM, respectively. Also, the RE in experiment [2], in experiment [6] and in experiment [7] was 1 throughout.
`COc1ccc(NC2=C(c3ccccc3)C(=O)N(c3ccccc3)C2=O)cc1`: the 50% effective concentration (EC50) in experiment [1] worked out at 1120 nM; in experiment [3] it was 260 nM; in experiment [5], 275 nM. Also, the RE in experiment [2] is 0.7; in experiment [6], 0.7 and 0.6. This compound also gave an IC50 in experiment [4] above 5000 nM.

The values above are taken from ChEMBL document CHEMBL1145169, “Discovery of substituted maleimides as liver X receptor agonists and determination of a ligand-bound crystal structure” (J Med Chem, 2005).
